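Growth conditions: 96-well plates. Treatment: test compound, 48 hours, 5 concentrations. Analysis: linear interpolation between bracketing concentrations; unreached endpoints set to highest concentration. TGI marks complete inhibition of growth.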
The compounds below were run on HOP-92 NSCLC (assay: inhibition of tumour cell growth, NCI panel, 48 h).

SMILES | TGI [µM]
O=C1CCC(c2ccccc2)C(O)(C(=O)O)C1 (stereo not drawn) | > 100
N#CCCN(CCC#N)c1ccc(C(=O)NN)cc1 | > 100
CC1=CC(=O)NP(=O)(Oc2ccc(C)cc2)N1 (stereo not drawn) | > 100
CC(=O)OC1CC2OC(Cc3ccccc32)O1 (stereo not drawn) | > 100
COC(=O)c1ccc2c(c1)CC1(C2)Cc2cc3c(cc2C1=O)CCC3 (stereo not drawn) | > 100
S=C1Cc2c([nH]c3ccccc23)-c2ccccc2N1 | > 100
N#[O+].O=S(=O)([O-])[O-].[NH2-].[NH2-].[NH2-].[NH2-].[NH2-].[Ru+5] | > 100

Each compound was assayed on A498 renal (assay: inhibition of tumour cell growth, NCI panel, 48 h).

SMILES | TGI [µM]
CC1=C2C3=C(C)C(=O)C(C)(C)CC[C@@]3(C)[C@]2(C)CCC(C)(C)C1=O | > 100
O=C1NNC(=O)C2C3c4ccccc4C(c4ccccc43)C12 (stereo not drawn) | > 100
O=C(CC(=O)n1nc(-c2ccccc2)c(N=Nc2ccc(Cl)cc2)c1-c1ccccc1)Nc1cccc(Cl)c1 | > 100
O=P(c1ccccc1)(c1ccccc1)C(NCc1ccccc1)c1ccc(F)cc1 (stereo not drawn) | 32
CCOC(=O)C(Cl)(NC(=O)c1ccc(F)cc1)C(F)(F)F (stereo not drawn) | > 100
CC1CN=C(Nc2ccc(S(N)(=O)=O)cc2)S1 (stereo not drawn) | > 100
CC(=O)NCc1nc(C#N)c(N)o1 | > 100
COc1cc2c(c(OC)c1OC)-c1ccc(SC)c(=O)cc1C(CC(=O)Oc1ccc([N+](=O)[O-])cc1)C2 (stereo not drawn) | 0.571
CSc1nc(Cl)c2c(n1)Sc1nc3cc4c(cc3n1C2O)OCO4 (stereo not drawn) | 40.4
CC(=O)NC(CCCN)C(=O)NCc1ccccc1 (stereo not drawn) | > 100
Cc1[nH]c(=O)[nH]c(=S)c1C(=O)NC(C)(CO)CO | > 100
Cc1nnc([C@@]2(C)CC[C@H]3[C@@H](CC=C4C[C@@H](O)CC[C@@]43C)[C@@H]2CC#N)o1 | > 100
COc1ccc(-c2c(C(C)=O)c(-c3ccccc3)n(C3OC(COC(C)=O)C(OC(C)=O)C(OC(C)=O)C3OC(C)=O)c(=S)c2C#N)cc1 (stereo not drawn) | > 100
O=C1SCC(O)=C1/C=N/Nc1nc2ccccc2o1 | > 100
CCCCCCCCCCCCCCCCCc1cccc(OCOCCOC)c1CO | > 100
CCOC(=O)Cn1sc2ncc([N+](=O)[O-])cc2c1=O | > 100
O=C1CCC(c2ccccc2)C(O)(C(=O)O)C1 (stereo not drawn) | > 100
N#CCCN(CCC#N)c1ccc(C(=O)NN)cc1 | > 100
CN1CCC(OC(=O)Oc2ccccc2)(c2ccccc2)CC1 | 56.4
CC1=CC(=O)NP(=O)(Oc2ccc(C)cc2)N1 (stereo not drawn) | > 100
CCOC(=O)CC(NC(=O)c1nc[nH]c1[N+](=O)[O-])C(=O)OCC (stereo not drawn) | > 100
COC(=O)c1ccc2c(c1)CC1(C2)Cc2cc3c(cc2C1=O)CCC3 (stereo not drawn) | > 100
N#[O+].O=S(=O)([O-])[O-].[NH2-].[NH2-].[NH2-].[NH2-].[NH2-].[Ru+5] | > 100

What follows are compounds tested on SW-620 colon (assay: inhibition of tumour cell growth, NCI panel, 48 h).

SMILES | TGI [µM]
O=C1c2ccccc2S[C@@H](O)[C@@H]2CCCN12 | > 100
CC1=C2C3=C(C)C(=O)C(C)(C)CC[C@@]3(C)[C@]2(C)CCC(C)(C)C1=O | > 100
Cc1cc(=O)[nH]c(NNC(C#N)c2ccc(O)cc2)n1 (stereo not drawn) | > 100
O=C1NNC(=O)C2C3c4ccccc4C(c4ccccc43)C12 (stereo not drawn) | > 100
O=C(CC(=O)n1nc(-c2ccccc2)c(N=Nc2ccc(Cl)cc2)c1-c1ccccc1)Nc1cccc(Cl)c1 | > 100
COc1cccc(C2c3cc4c(cc3OC(N3CCCC3)C2C)OCO4)c1 (stereo not drawn) | > 100
CN(C)/N=C(\CCN1CCCC1)CC(c1ccccc1)c1c(O)c2ccccc2oc1=O (stereo not drawn) | > 100
O=P(c1ccccc1)(c1ccccc1)C(NCc1ccccc1)c1ccc(F)cc1 (stereo not drawn) | 35.5
CCOC(=O)C(Cl)(NC(=O)c1ccc(F)cc1)C(F)(F)F (stereo not drawn) | > 100
CC1CN=C(Nc2ccc(S(N)(=O)=O)cc2)S1 (stereo not drawn) | > 100
CC(=O)NCc1nc(C#N)c(N)o1 | > 100
COc1cc2c(c(OC)c1OC)-c1ccc(SC)c(=O)cc1C(CC(=O)Oc1ccc([N+](=O)[O-])cc1)C2 (stereo not drawn) | > 48.7
CSc1nc(Cl)c2c(n1)Sc1nc3cc4c(cc3n1C2O)OCO4 (stereo not drawn) | > 81.8
CC(=O)NC(CCCN)C(=O)NCc1ccccc1 (stereo not drawn) | > 100
Cc1[nH]c(=O)[nH]c(=S)c1C(=O)NC(C)(CO)CO | > 100
Cc1nnc([C@@]2(C)CC[C@H]3[C@@H](CC=C4C[C@@H](O)CC[C@@]43C)[C@@H]2CC#N)o1 | > 100
COc1ccc(-c2c(C(C)=O)c(-c3ccccc3)n(C3OC(COC(C)=O)C(OC(C)=O)C(OC(C)=O)C3OC(C)=O)c(=S)c2C#N)cc1 (stereo not drawn) | > 100
O=C1SCC(O)=C1/C=N/Nc1nc2ccccc2o1 | > 100
CCCCCCCCCCCCCCCCCc1cccc(OCOCCOC)c1CO | > 100
CCOC(=O)Cn1sc2ncc([N+](=O)[O-])cc2c1=O | 30.6
O=C1CCC(c2ccccc2)C(O)(C(=O)O)C1 (stereo not drawn) | > 100
N#CCCN(CCC#N)c1ccc(C(=O)NN)cc1 | > 100
CN1CCC(OC(=O)Oc2ccccc2)(c2ccccc2)CC1 | 59.6
CC1=CC(=O)NP(=O)(Oc2ccc(C)cc2)N1 (stereo not drawn) | > 100
CC(=O)OC1CC2OC(Cc3ccccc32)O1 (stereo not drawn) | > 100
CCOC(=O)CC(NC(=O)c1nc[nH]c1[N+](=O)[O-])C(=O)OCC (stereo not drawn) | > 100
COC(=O)c1ccc2c(c1)CC1(C2)Cc2cc3c(cc2C1=O)CCC3 (stereo not drawn) | > 100
S=C1Cc2c([nH]c3ccccc23)-c2ccccc2N1 | > 100

Reference: PubChem BioAssay (NCI)
